Here are results for 27 molecules from patent US10668067B2, “Pyridine sulfonamides” (AMGEN INC., priority 2016, dated 2020).

As a reminder, the IC50 is the point on the concentration scale where inhibition reaches its midpoint. Read a low IC50 as higher potency.

Sequence of human Nav1.7 (Q15858 whole entry): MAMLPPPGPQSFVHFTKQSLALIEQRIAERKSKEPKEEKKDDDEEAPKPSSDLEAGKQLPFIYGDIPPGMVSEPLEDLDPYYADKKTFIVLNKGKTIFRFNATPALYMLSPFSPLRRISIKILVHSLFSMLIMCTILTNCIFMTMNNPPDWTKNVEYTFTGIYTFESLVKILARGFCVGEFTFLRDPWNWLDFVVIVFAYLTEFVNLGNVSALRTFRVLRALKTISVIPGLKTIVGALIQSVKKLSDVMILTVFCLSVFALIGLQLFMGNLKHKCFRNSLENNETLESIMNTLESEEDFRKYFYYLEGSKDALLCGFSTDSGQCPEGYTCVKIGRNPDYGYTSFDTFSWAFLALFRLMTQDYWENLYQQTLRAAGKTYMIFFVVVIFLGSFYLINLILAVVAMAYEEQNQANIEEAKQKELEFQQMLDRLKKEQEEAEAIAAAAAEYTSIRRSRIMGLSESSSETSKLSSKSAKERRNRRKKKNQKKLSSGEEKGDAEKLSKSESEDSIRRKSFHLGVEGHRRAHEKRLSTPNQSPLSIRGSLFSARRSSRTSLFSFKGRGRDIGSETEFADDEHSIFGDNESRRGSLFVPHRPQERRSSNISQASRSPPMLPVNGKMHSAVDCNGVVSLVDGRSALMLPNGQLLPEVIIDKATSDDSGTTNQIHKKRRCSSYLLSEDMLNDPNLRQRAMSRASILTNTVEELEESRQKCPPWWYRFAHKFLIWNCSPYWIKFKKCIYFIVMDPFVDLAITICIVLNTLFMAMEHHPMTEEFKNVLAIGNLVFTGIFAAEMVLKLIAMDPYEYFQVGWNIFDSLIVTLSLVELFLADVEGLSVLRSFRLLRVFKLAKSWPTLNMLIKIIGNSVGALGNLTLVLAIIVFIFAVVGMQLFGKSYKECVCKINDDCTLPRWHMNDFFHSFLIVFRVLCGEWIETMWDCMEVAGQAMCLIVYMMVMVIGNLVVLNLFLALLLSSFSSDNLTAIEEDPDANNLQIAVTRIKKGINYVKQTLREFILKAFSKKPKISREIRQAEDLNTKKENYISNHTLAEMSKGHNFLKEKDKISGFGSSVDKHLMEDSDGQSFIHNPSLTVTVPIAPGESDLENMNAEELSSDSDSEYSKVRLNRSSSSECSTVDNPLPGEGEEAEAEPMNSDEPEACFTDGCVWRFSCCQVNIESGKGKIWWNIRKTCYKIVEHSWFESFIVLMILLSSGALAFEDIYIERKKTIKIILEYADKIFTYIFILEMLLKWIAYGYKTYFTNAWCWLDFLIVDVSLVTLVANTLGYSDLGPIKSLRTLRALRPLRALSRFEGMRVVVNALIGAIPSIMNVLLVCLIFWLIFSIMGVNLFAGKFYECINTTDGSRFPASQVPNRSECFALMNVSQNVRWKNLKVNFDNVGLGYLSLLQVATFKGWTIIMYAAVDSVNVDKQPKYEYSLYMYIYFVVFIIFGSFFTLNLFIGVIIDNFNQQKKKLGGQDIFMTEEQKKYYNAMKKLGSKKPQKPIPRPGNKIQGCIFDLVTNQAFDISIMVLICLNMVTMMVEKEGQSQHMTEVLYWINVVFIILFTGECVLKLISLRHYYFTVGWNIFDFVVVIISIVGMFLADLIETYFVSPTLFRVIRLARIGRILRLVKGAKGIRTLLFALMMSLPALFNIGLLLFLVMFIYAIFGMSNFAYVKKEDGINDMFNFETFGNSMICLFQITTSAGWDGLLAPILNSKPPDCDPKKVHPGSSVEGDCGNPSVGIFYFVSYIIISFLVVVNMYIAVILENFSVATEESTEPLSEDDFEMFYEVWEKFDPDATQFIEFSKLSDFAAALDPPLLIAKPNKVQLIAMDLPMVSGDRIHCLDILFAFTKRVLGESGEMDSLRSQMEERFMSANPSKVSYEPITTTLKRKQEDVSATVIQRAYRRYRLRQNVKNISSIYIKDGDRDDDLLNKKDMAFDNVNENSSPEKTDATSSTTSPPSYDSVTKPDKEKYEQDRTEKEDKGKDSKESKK

This assay has as its target human Nav1.7 (Homo sapiens (Human), UniProt Q15858). Kind of assay: Nav 1.7 In Vitro PX Assay (PatchXpress whole cell voltage clamp). To be noted: in-vitro Nav 1.7 PX data. In kind it is cell-based. An outline of the steps:
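HEK293 cells stably expressing human Nav1.7, automated whole-cell clamp at a holding potential giving 20–50% inactivation; 20 ms steps to −10 mV at 0.1 Hz. One concentration per cell for 3 min; peak current inhibition at end of exposure, 3–5 cells per concentration, IC50 fitted from % inhibition.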
Molecule `CNC(=O)N(c1ccc(S(=O)(=O)Nc2ncccn2)cn1)c1cc(F)c(-c2ccc(Cl)c(C(F)(F)F)c2)cc1OC` [Example 1-89, 6-((4′-chloro-2-fluoro-5-methoxy-3′-(trifluoromethyl)-4-biphenylyl)(methylcarbamoyl)amino)-N-2-pyrimidinyl-3-pyridinesulfonamide] showed an IC50 of 45 nM.

Molecule `CONC(=O)N(c1ccc(S(=O)(=O)Nc2ccon2)cn1)c1cc(F)c(-c2cccc(C(F)(F)F)c2)cc1OC` [Example 1-90, 6-((2-fluoro-5-methoxy-3′-(trifluoromethyl)-4-biphenylyl)(methoxycarbamoyl)amino)-N-3-isoxazolyl-3-pyridinesulfonamide] returned an IC50 of 69 nM.

On to `CNC(=O)N(c1ccc(S(=O)(=O)Nc2ncccn2)cn1)c1cc(F)c(-c2ccc(F)c(Cl)c2)cc1OC` [Example 2-1, 6-((3′-chloro-2,4′-difluoro-5-methoxy-4-biphenylyl)(methylcarbamoyl)amino)-N-2-pyrimidinyl-3-pyridinesulfonamide], for which the midpoint of inhibition, the IC50, lay at 18 nM.

Molecule `CNC(=O)N(c1ccc(S(=O)(=O)Nc2ncccn2)cn1)c1cc(F)c(-c2ccc(F)c(C(F)F)c2)cc1OC` [Example 2-2, 6-((3′-(difluoromethyl)-2,4′-difluoro-5-methoxy-4-biphenylyl)(methylcarbamoyl)amino)-N-2-pyrimidinyl-3-pyridinesulfonamide] showed an IC50 of 7 nM.

The molecule `CNC(=O)N(c1ccc(S(=O)(=O)Nc2cccnn2)cn1)c1cc(Cl)c(-c2ccc(F)c(OCC(F)(F)F)c2)cc1OC` [Example 2-4, 6-((2-chloro-4′-fluoro-5-methoxy-3′-(2,2,2-trifluoroethoxy)-4-biphenylyl)(methylcarbamoyl)amino)-N-3-pyridazinyl-3-pyridinesulfonamide] displayed an IC50 of 54 nM.

Regarding `CNC(=O)N(c1ccc(S(=O)(=O)Nc2cccnn2)cn1)c1cc(Cl)c(-c2cc(F)c(F)c(F)c2)cc1OC` [Example 2-5, 6-((2-chloro-3′,4′,5′-trifluoro-5-methoxy-4-biphenylyl)(methylcarbamoyl)amino)-N-3-pyridazinyl-3-pyridinesulfonamide], half-maximal inhibition (IC50) was put at 75 nM.

Consider `CNC(=O)N(c1ccc(S(=O)(=O)Nc2cccnn2)cn1)c1cc(Cl)c(-c2cc(OC)nc(C(F)(F)F)c2)cc1OC` [Example 2-6, 6-((5-chloro-2-methoxy-4-(2-methoxy-6-(trifluoromethyl)-4-pyridinyl)phenyl)(methylcarbamoyl)amino)-N-3-pyridazinyl-3-pyridinesulfonamide], for which the IC50 turned out to be 26 nM.

The molecule `CNC(=O)N(c1ccc(S(=O)(=O)Nc2ncccn2)cn1)c1ccc(-c2ccc(F)c(OC(F)(F)F)c2)cc1OC` [Example 2-7, 6-((4′-fluoro-3-methoxy-3′-(trifluoromethoxy)-4-biphenylyl)(methylcarbamoyl)amino)-N-2-pyrimidinyl-3-pyridinesulfonamide] showed an IC50 of 4 nM.

`CNC(=O)N(c1ccc(S(=O)(=O)Nc2ncccn2)cn1)c1ccc(-c2ccc(F)c(C(F)(F)F)c2)cc1OC` [Example 2-8, 6-((4′-fluoro-3-methoxy-3′-(trifluoromethyl)-4-biphenylyl)(methylcarbamoyl)amino)-N-2-pyrimidinyl-3-pyridinesulfonamide] came in with an IC50 of 17 nM.

`CNC(=O)N(c1ccc(S(=O)(=O)Nc2ncccn2)cn1)c1cc(Cl)c(-c2ccc(F)c(OC(F)(F)F)c2)cc1OC` [Example 2-10, 6-((2-chloro-4′-fluoro-5-methoxy-3′-(trifluoromethoxy)-4-biphenylyl)(methylcarbamoyl)amino)-N-2-pyrimidinyl-3-pyridinesulfonamide] came in with an IC50 of 8 nM.

The molecule `CCCCCCCCCCCCCCc1cc(OC)c(N(C(=O)NC)c2ccc(S(=O)(=O)Nc3ncccn3)cn2)cc1F` [Example 2-11, 6-(1-(5-Fluoro-2-methoxy-4-tetradecylphenyl)-3-methylureido)-N-(pyrimidin-2-yl)pyridine-3-sulfonamide] returned an IC50 of 14 nM.

With `CNC(=O)N(c1ccc(S(=O)(=O)Nc2nocc2C)cn1)c1cc(F)c(-c2ccc(F)c(OC(F)(F)F)c2)cc1OC` [Example 2-12, 6-(1-(2,4′-difluoro-5-methoxy-3′-(trifluoromethoxy)-[1,1′-biphenyl]-4-yl)-3-methylureido)-N-(4-methylisoxazol-3-yl)pyridine-3-sulfonamide], the IC50 was found to be 63.5 nM.

Take `CNC(=O)N(c1ccc(S(=O)(=O)Nc2nocc2C)cn1)c1cc(F)c(-c2ccc(F)c(C(F)(F)F)c2)cc1OC` [Example 2-13, 6-(1-(2,4′-difluoro-5-methoxy-3′-(trifluoromethyl)-[1,1′-biphenyl]-4-yl)-3-methylureido)-N-(4-methylisoxazol-3-yl)pyridine-3-sulfonamide]: the IC50 is 116 nM.

The molecule `CNC(=O)N(c1ccc(S(=O)(=O)Nc2nocc2C)cn1)c1cc(F)c(-c2ccc(F)c(OCC(F)(F)F)c2)cc1OC` [Example 2-14, 6-(1-(2,4′-difluoro-5-methoxy-3′-(2,2,2-trifluoroethoxy)-[1,1′-biphenyl]-4-yl)-3-methylureido)-N-(4-methylisoxazol-3-yl)pyridine-3-sulfonamide] returned an IC50 of 621 nM.

In turn, `CNC(=O)N(c1ccc(S(=O)(=O)Nc2ncccn2)cn1)c1cc(Cl)c(-c2ccc(F)c(OCC(F)(F)F)c2)cc1OC` [Example 3-1, 6-((2-chloro-4′-fluoro-5-methoxy-3′-(2,2,2-trifluoroethoxy)-4-biphenylyl)(methylcarbamoyl)amino)-N-2-pyrimidinyl-3-pyridinesulfonamide] came in with an IC50 of 33 nM.

In turn, `CNC(=O)N(c1ccc(S(=O)(=O)Nc2cnsn2)cn1)c1cc(Cl)c(-c2ccc(F)c(OCC(F)(F)F)c2)cc1OC` [Example 3-2, 6-((2-chloro-4′-fluoro-5-methoxy-3′-(2,2,2-trifluoroethoxy)-4-biphenylyl)(methylcarbamoyl)amino)-N-1,2,5-thiadiazol-3-yl-3-pyridinesulfonamide] showed an IC50 of 31 nM.

As for `CNC(=O)N(c1ccc(S(=O)(=O)Nc2cccc(F)n2)cn1)c1cc(Cl)c(-c2ccc(F)c(OCC(F)(F)F)c2)cc1OC` [Example 3-3, 6-((2-chloro-4′-fluoro-5-methoxy-3′-(2,2,2-trifluoroethoxy)-4-biphenylyl)(methylcarbamoyl)amino)-N-(6-fluoro-2-pyridinyl)-3-pyridinesulfonamide], the IC50 worked out at 73 nM.

For `CNC(=O)N(c1ccc(S(=O)(=O)Nc2ncco2)cn1)c1cc(Cl)c(-c2ccc(F)c(OCC(F)(F)F)c2)cc1OC` [Example 3-4, 6-((2-chloro-4′-fluoro-5-methoxy-3′-(2,2,2-trifluoroethoxy)-4-biphenylyl)(methylcarbamoyl)amino)-N-1,3-oxazol-2-yl-3-pyridinesulfonamide], inhibition was half-maximal at 53 nM (IC50).

For `CNC(=O)N(c1ccc(S(=O)(=O)Nc2ccnc(C)n2)cn1)c1cc(Cl)c(-c2ccc(F)c(OCC(F)(F)F)c2)cc1OC` [Example 3-5, 6-((2-chloro-4′-fluoro-5-methoxy-3′-(2,2,2-trifluoroethoxy)-4-biphenylyl)(methylcarbamoyl)amino)-N-(2-methyl-4-pyrimidinyl)-3-pyridinesulfonamide], half-maximal inhibition (IC50) required 76 nM. This IC50 and that of the molecule before are within 1.5-fold of each other.

Take `CNC(=O)N(c1ccc(S(=O)(=O)Nc2ccncn2)cn1)c1cc(Cl)c(-c2ccc(F)c(OCC(F)(F)F)c2)cc1OC` [Example 3-6, 6-((2-chloro-4′-fluoro-5-methoxy-3′-(2,2,2-trifluoroethoxy)-4-biphenylyl)(methylcarbamoyl)amino)-N-4-pyrimidinyl-3-pyridinesulfonamide]: inhibition was half-maximal at 51 nM (IC50).

Regarding `CNC(=O)N(c1ccc(S(=O)(=O)Nc2ncccn2)cn1)c1cc(Cl)c(-c2ccc(F)c(C(F)(F)F)c2)cc1OC` [Example 3-7, 6-((2-chloro-4′-fluoro-5-methoxy-3′-(trifluoromethyl)-4-biphenylyl)(methylcarbamoyl)amino)-N-2-pyrimidinyl-3-pyridinesulfonamide], the IC50 was 28 nM. This IC50 lies about 1.8-fold lower than the previous one.

`CNC(=O)N(c1ccc(S(=O)(=O)Nc2cnsn2)cn1)c1cc(Cl)c(-c2ccc(F)c(C(F)(F)F)c2)cc1OC` [Example 3-8, 6-((2-chloro-4′-fluoro-5-methoxy-3′-(trifluoromethyl)-4-biphenylyl)(methylcarbamoyl)amino)-N-1,2,5-thiadiazol-3-yl-3-pyridinesulfonamide] came in with an IC50 of 14 nM. Compared with the last molecule, the IC50 is about 2-fold lower.

`CNC(=O)N(c1ccc(S(=O)(=O)Nc2cccc(F)n2)cn1)c1cc(Cl)c(-c2ccc(F)c(C(F)(F)F)c2)cc1OC` [Example 3-9, 6-((2-chloro-4′-fluoro-5-methoxy-3′-(trifluoromethyl)-4-biphenylyl)(methylcarbamoyl)amino)-N-(6-fluoro-2-pyridinyl)-3-pyridinesulfonamide]: 53 nM corresponded to half-maximal inhibition (IC50).

`CNC(=O)N(c1ccc(S(=O)(=O)Nc2ncco2)cn1)c1cc(Cl)c(-c2ccc(F)c(C(F)(F)F)c2)cc1OC` [Example 3-10, 6-((2-chloro-4′-fluoro-5-methoxy-3′-(trifluoromethyl)-4-biphenylyl)(methylcarbamoyl)amino)-N-1,3-oxazol-2-yl-3-pyridinesulfonamide]: inhibition was half-maximal at 20 nM (IC50).

`CNC(=O)N(c1ccc(S(=O)(=O)Nc2ccnc(C)n2)cn1)c1cc(Cl)c(-c2ccc(F)c(C(F)(F)F)c2)cc1OC` [Example 3-11, 6-((2-chloro-4′-fluoro-5-methoxy-3′-(trifluoromethyl)-4-biphenylyl)(methylcarbamoyl)amino)-N-(2-methyl-4-pyrimidinyl)-3-pyridinesulfonamide] showed an IC50 of 26 nM. This IC50 and that of the molecule before are within 1.5-fold of each other.

Molecule `CNC(=O)N(c1ccc(S(=O)(=O)Nc2ccncn2)cn1)c1cc(Cl)c(-c2ccc(F)c(C(F)(F)F)c2)cc1OC` [Example 3-12, 6-((2-chloro-4′-fluoro-5-methoxy-3′-(trifluoromethyl)-4-biphenylyl)(methylcarbamoyl)amino)-N-4-pyrimidinyl-3-pyridinesulfonamide] returned an IC50 of 24 nM. The IC50 values of the last two molecules are within 1.5-fold of each other.

Molecule `CNC(=O)N(c1ccc(S(=O)(=O)Nc2cccnn2)cn1)c1cc(F)c(-c2ccc(F)c(OC(F)(F)F)c2)cc1OC` [Example 3-13, 6-((2,4′-difluoro-5-methoxy-3′-(trifluoromethoxy)-4-biphenylyl)(methylcarbamoyl)amino)-N-3-pyridazinyl-3-pyridinesulfonamide] had an IC50 of 7 nM. This IC50 is about 3.4-fold lower than that of the molecule before.
